Measured values reported in article PMC5460289, “Identification of New Shikonin Derivatives as Antitumor Agents Targeting STAT3 SH2 Domain” (Scientific Reports, 2017).

Experiments:
[1] = MTT anti-proliferation assay, non-tumorigenic cells; assay type: cell-based; details: human, non-tumorigenic MCF-10A cells, 24 h treatment
Experimental: (§1) Initial experiments were performed for evaluation of growth inhibition by the new compounds against six human breast cancer cell lines, including MCF-7 (ER+/PR+, HER-2-), BT474 (ER+/PR+, HER-2+), SKBR-3 (ER-/PR-/HER-2+), MDA-MB-436 (ER-/PR-/HER-2-), MDA-MB-231 (ER-/PR-/HER-2-), MDA-MB-468 (ER-/PR-/HER-2-) and non-tumorigenic MCF-10A cells. After 24 h treatment by the obtained compounds, the inhibition was assessed and the IC50 was summarized. […] Subsequently, the inhibition of STAT3 activation by PMM-172 and Stattic was evaluated using a dual-luciferase assay.
(§2) The anti-proliferative activities of the prepared compounds against MCF-7 (ER+/PR+, HER-2-), BT474 (ER+/PR+, HER-2+), SKBR-3 (ER-/PR-/HER-2+), MDA-MB-436 (ER-/PR-/HER-2-), MDA-MB-231 (ER-/PR-/HER-2-), MDA-MB-468 (ER-/PR-/HER-2-) and non-tumorigenic MCF-10A cell lines were evaluated using a standard (MTT)-based colorimetric assay with some modification. Cell lines were grown to log phase in DMEM supplemented with 10% fetal bovine serum. Cell suspensions were prepared and 100 μL/well dispensed into 96-well plates giving 10^4 cells/well. The subsequent incubation was permitted at 37 °C, 5% CO2 atmosphere for 24 h to allow the cells to reattach. Subsequently, cells were treated with the target compounds at increasing concentrations in the presence of 10% FBS for 24 h. Then, cell viability was assessed by the conventional 3-(4, 5-dimethylthiazol-2-yl)-2, 5-diphenyltetrazolium bromide (MTT) reduction assay and carried out strictly according to the manufacturer instructions. The absorbance (OD570) was read on an ELISA reader (Tecan, Austria). In all experiments, three replicate wells were used for each drug concentration. Each assay was carried out for at least three times.

MDA-MB-231 = assay: MTT anti-proliferation assay; assay type: cell-based, human
Experimental: as §1, §2

MDA-MB-468 = assay: MTT anti-proliferation assay; assay type: cell-based, human; details: Homo sapiens, MDA-MB-468, 24 h treatment
Experimental: as §1, §2

MCF-7 = assay: MTT anti-proliferation assay; assay type: cell-based, human; details: Homo sapiens, MCF7, 24 h treatment
Experimental: as §1, §2

SKBR-3 = assay: MTT anti-proliferation assay; assay type: cell-based, human; details: Homo sapiens, SK-BR-3, 24 h treatment
Experimental: as §1, §2

MDA-MB-436 = assay: MTT anti-proliferation assay; assay type: cell-based, human; details: Homo sapiens, MDA-MB-436, 24 h treatment
Experimental: as §1, §2

BT-474 = assay: MTT anti-proliferation assay; assay type: cell-based, human; details: Homo sapiens, BT-474, 24 h treatment
Experimental: as §1, §2

[2] = Homo sapiens, MDA-MB-231, 24 h treatment

| IC50 (MDA-MB-231; [2]) [µM] | IC50 (MDA-MB-468) [µM] | IC50 (MCF-7) [µM] | IC50 (SKBR-3) [µM] | IC50 (MDA-MB-436) [µM] | IC50 (BT-474) [µM] | SMILES | CC50 at 24 h [1] [µM] | IC50 (MDA-MB-231; 24 h treatment) [µM] | IC50 (MDA-MB-231; Homo sapiens, MDA-MB-231, 24 h, 24 h treatment) [µM] |
| --- | --- | --- | --- | --- | --- | --- | --- | --- | --- |
| 3.64 ± 0.91 | 4.07 ± 0.66 | 6.41 ± 0.75 | 4.87 ± 0.58 | 4.66 ± 0.59 | 6.91 ± 0.73 | CC(C)=CC[C@@H](OC(=O)CSc1nnc(-c2cccc(Br)c2)o1)C1=CC(=O)c2c(O)ccc(O)c2C1=O [PMM-166, (R)-1-(5,8-dihydroxy-1,4-dioxo-1,4-dihydronaphthalen-2-yl)-4-methylpent-3-en-1-yl 2-((5-(3-bromophenyl)-1,3,4-oxadiazol-2-yl)thio)acetate] | 69.9 ± 0.58 |  |  |
| 2.59 ± 0.19 | 3.76 ± 0.88 | 5.58 ± 0.83 | 3.59 ± 0.49 | 4.06 ± 0.53 | 6.03 ± 0.71 | CC(C)=CC[C@@H](OC(=O)CSc1nnc(-c2ccc(C)cc2)o1)C1=CC(=O)c2c(O)ccc(O)c2C1=O [PMM-173, (R)-1-(5,8-dihydroxy-1,4-dioxo-1,4-dihydronaphthalen-2-yl)-4-methylpent-3-en-1-yl 2-((5-(p-tolyl)-1,3,4-oxadiazol-2-yl)thio)acetate] | 88.9 ± 0.34 |  |  |
| 5.47 ± 1.01 | 6.58 ± 0.15 | 9.38 ± 0.66 | 6.23 ± 0.73 | 5.97 ± 0.67 | 9.22 ± 0.98 | CC(C)=CC[C@@H](OC(=O)CSc1nnc(-c2ccc(Br)cc2)o1)C1=CC(=O)c2c(O)ccc(O)c2C1=O [PMM-165, (R)-1-(5,8-dihydroxy-1,4-dioxo-1,4-dihydronaphthalen-2-yl)-4-methylpent-3-en-1-yl 2-((5-(4-bromophenyl)-1,3,4-oxadiazol-2-yl)thio)acetate] | 83.7 ± 1.28 |  |  |
| 6.14 ± 1.05 | 6.85 ± 0.92 | 9.01 ± 0.92 | 8.03 ± 0.83 | 7.28 ± 0.77 | 9.54 ± 0.91 | CC(C)=CC[C@@H](OC(=O)CSc1nnc(-c2ccc(Cl)cc2)o1)C1=CC(=O)c2c(O)ccc(O)c2C1=O [PMM-162, (R)-1-(5,8-dihydroxy-1,4-dioxo-1,4-dihydronaphthalen-2-yl)-4-methylpent-3-en-1-yl 2-((5-(4-chlorophenyl)-1,3,4-oxadiazol-2-yl)thio)acetate] | 91.9 ± 1.21 |  |  |
| 7.24 ± 0.82 | 8.23 ± 1.27 | 9.22 ± 0.13 | 8.95 ± 0.69 | 8.49 ± 0.78 | 10.8 ± 0.94 | CC(C)=CC[C@@H](OC(=O)CSc1nnc(-c2ccc(F)cc2)o1)C1=CC(=O)c2c(O)ccc(O)c2C1=O [PMM-159, (R)-1-(5,8-dihydroxy-1,4-dioxo-1,4-dihydronaphthalen-2-yl)-4-methylpent-3-en-1-yl 2-((5-(4-fluorophenyl)-1,3,4-oxadiazol-2-yl)thio)acetate] | 89.5 ± 0.99 |  |  |

Continued, molecule first:

| SMILES | IC50 (MDA-MB-231; [2]) [µM] | IC50 (MDA-MB-468) [µM] | IC50 (MCF-7) [µM] | IC50 (SKBR-3) [µM] | IC50 (MDA-MB-436) [µM] | IC50 (BT-474) [µM] | CC50 at 24 h [1] [µM] | IC50 (MDA-MB-231; 24 h treatment) [µM] | IC50 (MDA-MB-231; Homo sapiens, MDA-MB-231, 24 h, 24 h treatment) [µM] |
| --- | --- | --- | --- | --- | --- | --- | --- | --- | --- |
| CC(C)=CC[C@@H](OC(=O)CSc1nnc(-c2cccc(F)c2)o1)C1=CC(=O)c2c(O)ccc(O)c2C1=O [PMM-160, (R)-1-(5,8-dihydroxy-1,4-dioxo-1,4-dihydronaphthalen-2-yl)-4-methylpent-3-en-1-yl 2-((5-(3-fluorophenyl)-1,3,4-oxadiazol-2-yl)thio)acetate] | 9.66 ± 1.21 | 12.4 ± 0.52 | 15.3 ± 0.52 | 10.5 ± 0.88 | 11.8 ± 0.86 | 18.3 ± 1.24 | 68.3 ± 0.27 |  |  |
| CC(C)=CC[C@@H](OC(=O)CSc1nnc(-c2ccccc2F)o1)C1=CC(=O)c2c(O)ccc(O)c2C1=O [PMM-161, (R)-1-(5,8-dihydroxy-1,4-dioxo-1,4-dihydronaphthalen-2-yl)-4-methylpent-3-en-1-yl 2-((5-(2-fluorophenyl)-1,3,4-oxadiazol-2-yl)thio)acetate] | 8.58 ± 0.53 | 8.97 ± 1.05 | 9.81 ± 0.49 | 9.29 ± 0.66 | 9.55 ± 0.83 | 11.1 ± 1.12 | 84.5 ± 0.74 |  |  |
| CC(C)=CC[C@@H](OC(=O)CSc1nnc(-c2ccccc2)o1)C1=CC(=O)c2c(O)ccc(O)c2C1=O [PMM-158, (R)-1-(5,8-dihydroxy-1,4-dioxo-1,4-dihydronaphthalen-2-yl)-4-methylpent-3-en-1-yl 2-((5-phenyl-1,3,4-oxadiazol-2-yl)thio)acetate] | 9.17 ± 0.99 | 10.6 ± 0.65 | 12.1 ± 0.42 | 11.5 ± 0.74 | 10.1 ± 0.92 | 15.6 ± 1.03 | 92.5 ± 0.27 |  |  |
| COc1cccc(-c2nnc(SCC(=O)O[C@H](CC=C(C)C)C3=CC(=O)c4c(O)ccc(O)c4C3=O)o2)c1 [PMM-169, (R)-1-(5,8-dihydroxy-1,4-dioxo-1,4-dihydronaphthalen-2-yl)-4-methylpent-3-en-1-yl 2-((5-(3-methoxyphenyl)-1,3,4-oxadiazol-2-yl)thio)acetate] | 5.33 ± 0.77 | 7.22 ± 1.11 | 8.12 ± 0.98 | 6.95 ± 0.82 | 7.36 ± 0.87 | 8.36 ± 0.97 | 99.5 ± 0.49 |  |  |
| CC(C)=CC[C@@H](OC(=O)CSc1nnc(-c2ccccc2Br)o1)C1=CC(=O)c2c(O)ccc(O)c2C1=O [PMM-167, (R)-1-(5,8-dihydroxy-1,4-dioxo-1,4-dihydronaphthalen-2-yl)-4-methylpent-3-en-1-yl 2-((5-(2-bromophenyl)-1,3,4-oxadiazol-2-yl)thio)acetate] | 9.01 ± 0.56 | 12.2 ± 0.42 | 15.3 ± 0.61 | 9.76 ± 0.95 | 10.6 ± 0.82 | 13.7 ± 0.92 | 72.5 ± 1.53 |  |  |
| CC(C)=CC[C@@H](O)C1=CC(=O)c2c(O)ccc(O)c2C1=O [Shikonin, shikonin] |  | 3.61 ± 0.34 | 4.57 ± 0.69 | 3.75 ± 0.52 | 3.28 ± 0.41 | 5.74 ± 0.66 | 23.5 ± 1.01 | 2.88 ± 0.25 | 3.28 ± 0.41 |
| COc1ccccc1-c1nnc(SCC(=O)O[C@H](CC=C(C)C)C2=CC(=O)c3c(O)ccc(O)c3C2=O)o1 [PMM-170, (R)-1-(5,8-dihydroxy-1,4-dioxo-1,4-dihydronaphthalen-2-yl)-4-methylpent-3-en-1-yl 2-((5-(2-methoxyphenyl)-1,3,4-oxadiazol-2-yl)thio)acetate] | 4.31 ± 0.65 | 8.44 ± 0.78 | 9.73 ± 1.03 | 8.27 ± 0.69 | 6.88 ± 0.73 | 12.7 ± 1.06 | 94.6 ± 0.83 |  |  |
| CC(C)=CC[C@@H](OC(=O)CSc1nnc(-c2ccccc2Cl)o1)C1=CC(=O)c2c(O)ccc(O)c2C1=O [PMM-164, (R)-1-(5,8-dihydroxy-1,4-dioxo-1,4-dihydronaphthalen-2-yl)-4-methylpent-3-en-1-yl 2-((5-(2-chlorophenyl)-1,3,4-oxadiazol-2-yl)thio)acetate] | 3.76 ± 1.02 | 3.94 ± 0.73 | 5.71 ± 0.52 | 4.49 ± 0.58 | 4.41 ± 0.55 | 7.09 ± 0.65 | 74.6 ± 0.55 |  |  |
| CC(C)=CC[C@@H](OC(=O)CSc1nnc(-c2cccc(Cl)c2)o1)C1=CC(=O)c2c(O)ccc(O)c2C1=O [PMM-163, (R)-1-(5,8-dihydroxy-1,4-dioxo-1,4-dihydronaphthalen-2-yl)-4-methylpent-3-en-1-yl 2-((5-(3-chlorophenyl)-1,3,4-oxadiazol-2-yl)thio)acetate] | 6.04 ± 0.59 | 7.83 ± 0.55 | 8.69 ± 0.83 | 7.56 ± 0.72 | 7.09 ± 0.63 | 9.27 ± 0.86 | 86.2 ± 0.33 |  |  |
